Legend:
Experiment in all cases: KINOMEscan kinase binding assay
[1] = biological target: T1, 384 kinases from the human genome (Homo sapiens, UniProt O00444); details: kinase PLK4 (Entrez PLK4)
T1 construct: purchased Eurofin/DiscoverX
Method in brief: (§1)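 A panel of 384 human kinases was profiled by KINOMEscan binding in the presence of 10 µM compound. Kinase–ligand binding was given as percent of DMSO control, averaged from duplicates in a single run, with an S(10) selectivity score.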

[2] = biological target: T2, 384 kinases from the human genome (Homo sapiens, UniProt O14733); details: kinase MKK7 (Entrez MAP2K7)
T2 construct: purchased Eurofin/DiscoverX
Method in brief: as §1

[3] = biological target: T3, 384 kinases from the human genome (Homo sapiens, UniProt O94921); details: kinase PFTK1 (Entrez CDK14)
T3 construct: purchased Eurofin/DiscoverX
Method in brief: as §1

[4] = biological target: T4, 384 kinases from the human genome (Homo sapiens, UniProt P14616); details: kinase INSRR (Entrez INSRR)
T4 construct: purchased Eurofin/DiscoverX
Method in brief: as §1

[5] = biological target: T5, 384 kinases from the human genome (Homo sapiens, UniProt P33981); details: kinase TTK (Entrez TTK)
T5 construct: purchased Eurofin/DiscoverX
Method in brief: as §1

[6] = biological target: T6, 384 kinases from the human genome (Homo sapiens, UniProt P35968); details: kinase VEGFR2 (Entrez KDR)
T6 construct: purchased Eurofin/DiscoverX
Method in brief: as §1

[7] = biological target: T7, 384 kinases from the human genome (Homo sapiens, UniProt P42680); details: kinase TEC (Entrez TEC)
T7 construct: purchased Eurofin/DiscoverX
Method in brief: as §1

[8] = biological target: T8, 384 kinases from the human genome (Homo sapiens, UniProt P51817); details: kinase PRKX (Entrez PRKX)
T8 construct: purchased Eurofin/DiscoverX
Method in brief: as §1

[9] = biological target: T9, 384 kinases from the human genome (Homo sapiens, UniProt P53779); details: kinase JNK3 (Entrez MAPK10)
T9 construct: purchased Eurofin/DiscoverX
Method in brief: as §1

[10] = biological target: T10, 384 kinases from the human genome (Homo sapiens, UniProt P54753); details: kinase EPHB3 (Entrez EPHB3)
T10 construct: purchased Eurofin/DiscoverX
Method in brief: as §1

[11] = biological target: T11, 384 kinases from the human genome (Homo sapiens, UniProt P57078); details: kinase RIPK4 (Entrez RIPK4)
T11 construct: purchased Eurofin/DiscoverX
Method in brief: as §1

[12] = biological target: T12, 384 kinases from the human genome (Homo sapiens, UniProt Q13233); details: kinase MAP3K1 (Entrez MAP3K1)
T12 construct: purchased Eurofin/DiscoverX
Method in brief: as §1

[13] = biological target: T13, 384 kinases from the human genome (Homo sapiens, UniProt Q13705); details: kinase ACVR2B (Entrez ACVR2B)
T13 construct: purchased Eurofin/DiscoverX
Method in brief: as §1

[14] = biological target: T14, 384 kinases from the human genome (Homo sapiens, UniProt Q14289); details: kinase PYK2 (Entrez PTK2B)
T14 construct: purchased Eurofin/DiscoverX
Method in brief: as §1

[15] = biological target: T15, 384 kinases from the human genome (Homo sapiens, UniProt Q15208); details: kinase NDR1 (Entrez STK38)
T15 construct: purchased Eurofin/DiscoverX
Method in brief: as §1

[16] = biological target: T16, 384 kinases from the human genome (Homo sapiens, UniProt Q15759); details: kinase p38-beta (Entrez MAPK11)
T16 construct: purchased Eurofin/DiscoverX
Method in brief: as §1

[17] = biological target: T17, 384 kinases from the human genome (Homo sapiens, UniProt Q15831); details: kinase LKB1 (Entrez STK11)
T17 construct: purchased Eurofin/DiscoverX
Method in brief: as §1

[18] = biological target: T18, 384 kinases from the human genome (Homo sapiens, UniProt Q5S007); details: kinase LRRK2 (Entrez LRRK2)
T18 construct: purchased Eurofin/DiscoverX
Method in brief: as §1

[19] = biological target: T19, 384 kinases from the human genome (Homo sapiens, UniProt Q86V86); details: kinase PIM3 (Entrez PIM3)
T19 construct: purchased Eurofin/DiscoverX
Method in brief: as §1

[20] = biological target: T20, 384 kinases from the human genome (Homo sapiens, UniProt Q86Y07); details: kinase VRK2 (Entrez VRK2)
T20 construct: purchased Eurofin/DiscoverX
Method in brief: as §1

[21] = biological target: T21, 384 kinases from the human genome (Homo sapiens, UniProt Q9BUB5); details: kinase MKNK1 (Entrez MKNK1)
T21 construct: purchased Eurofin/DiscoverX
Method in brief: as §1

[22] = biological target: T22, 384 kinases from the human genome (Homo sapiens, UniProt Q9H0K1); details: kinase SIK2 (Entrez SIK2)
T22 construct: purchased Eurofin/DiscoverX
Method in brief: as §1

[23] = biological target: T23, 384 kinases from the human genome (Homo sapiens, UniProt Q9UEE5); details: kinase DRAK1 (Entrez STK17A)
T23 construct: purchased Eurofin/DiscoverX
Method in brief: as §1

[24] = biological target: T24, 384 kinases from the human genome (Homo sapiens, UniProt Q9UF33); details: kinase EPHA6 (Entrez EPHA6)
T24 construct: purchased Eurofin/DiscoverX
Method in brief: as §1

[25] = biological target: T25, 384 kinases from the human genome (Homo sapiens, UniProt Q9UL54); details: kinase TAOK2 (Entrez TAOK2)
T25 construct: purchased Eurofin/DiscoverX
Method in brief: as §1

[26] = biological target: T26, 384 kinases from the human genome (Homo sapiens, UniProt Q9Y6R4); details: kinase MAP3K4 (Entrez MAP3K4)
T26 construct: purchased Eurofin/DiscoverX
Method in brief: as §1

T21 sequence (Q9BUB5 whole entry): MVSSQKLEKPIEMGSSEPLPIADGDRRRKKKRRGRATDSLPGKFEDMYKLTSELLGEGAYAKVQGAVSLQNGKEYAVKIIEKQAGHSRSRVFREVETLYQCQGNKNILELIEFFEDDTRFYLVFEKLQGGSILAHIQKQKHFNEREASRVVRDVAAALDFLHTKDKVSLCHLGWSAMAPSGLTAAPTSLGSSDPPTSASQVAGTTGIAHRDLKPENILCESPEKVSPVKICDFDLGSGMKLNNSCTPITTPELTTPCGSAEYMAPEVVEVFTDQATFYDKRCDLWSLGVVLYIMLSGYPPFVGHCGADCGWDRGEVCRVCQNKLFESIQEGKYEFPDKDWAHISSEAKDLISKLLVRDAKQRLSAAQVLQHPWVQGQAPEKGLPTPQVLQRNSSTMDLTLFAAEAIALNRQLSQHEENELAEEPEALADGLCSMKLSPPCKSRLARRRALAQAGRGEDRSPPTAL
T25 sequence (Q9UL54 whole entry): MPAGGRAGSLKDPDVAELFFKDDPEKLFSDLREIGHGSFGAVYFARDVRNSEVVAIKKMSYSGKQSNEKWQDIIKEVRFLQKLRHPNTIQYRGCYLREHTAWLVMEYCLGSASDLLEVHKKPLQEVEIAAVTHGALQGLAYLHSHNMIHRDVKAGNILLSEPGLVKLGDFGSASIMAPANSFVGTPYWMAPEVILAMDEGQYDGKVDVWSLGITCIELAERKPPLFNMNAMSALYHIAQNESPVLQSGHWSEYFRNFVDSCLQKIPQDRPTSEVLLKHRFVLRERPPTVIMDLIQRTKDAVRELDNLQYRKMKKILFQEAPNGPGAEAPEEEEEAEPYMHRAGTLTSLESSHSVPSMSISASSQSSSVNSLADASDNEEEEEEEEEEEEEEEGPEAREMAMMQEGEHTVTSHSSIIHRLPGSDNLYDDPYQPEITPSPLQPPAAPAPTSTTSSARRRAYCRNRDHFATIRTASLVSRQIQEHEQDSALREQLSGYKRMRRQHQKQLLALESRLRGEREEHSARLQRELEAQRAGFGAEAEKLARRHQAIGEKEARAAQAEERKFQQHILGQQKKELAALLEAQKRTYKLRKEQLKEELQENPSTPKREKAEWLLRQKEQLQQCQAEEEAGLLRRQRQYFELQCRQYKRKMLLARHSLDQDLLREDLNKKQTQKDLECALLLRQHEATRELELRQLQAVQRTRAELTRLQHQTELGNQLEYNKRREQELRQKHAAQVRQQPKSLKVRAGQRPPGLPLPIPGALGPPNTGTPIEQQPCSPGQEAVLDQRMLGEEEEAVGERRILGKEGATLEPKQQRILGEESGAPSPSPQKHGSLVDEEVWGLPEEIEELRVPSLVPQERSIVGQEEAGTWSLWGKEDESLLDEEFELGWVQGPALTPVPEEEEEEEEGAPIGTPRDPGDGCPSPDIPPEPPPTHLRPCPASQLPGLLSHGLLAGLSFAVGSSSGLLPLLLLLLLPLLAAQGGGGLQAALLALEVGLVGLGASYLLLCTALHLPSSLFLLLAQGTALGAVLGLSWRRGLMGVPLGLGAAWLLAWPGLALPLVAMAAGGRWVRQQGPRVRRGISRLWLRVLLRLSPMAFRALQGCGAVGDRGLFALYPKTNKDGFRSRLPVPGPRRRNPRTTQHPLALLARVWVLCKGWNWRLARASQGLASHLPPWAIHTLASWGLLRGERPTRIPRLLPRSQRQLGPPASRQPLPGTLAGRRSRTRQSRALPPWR
T24 sequence (Q9UF33 23-1036): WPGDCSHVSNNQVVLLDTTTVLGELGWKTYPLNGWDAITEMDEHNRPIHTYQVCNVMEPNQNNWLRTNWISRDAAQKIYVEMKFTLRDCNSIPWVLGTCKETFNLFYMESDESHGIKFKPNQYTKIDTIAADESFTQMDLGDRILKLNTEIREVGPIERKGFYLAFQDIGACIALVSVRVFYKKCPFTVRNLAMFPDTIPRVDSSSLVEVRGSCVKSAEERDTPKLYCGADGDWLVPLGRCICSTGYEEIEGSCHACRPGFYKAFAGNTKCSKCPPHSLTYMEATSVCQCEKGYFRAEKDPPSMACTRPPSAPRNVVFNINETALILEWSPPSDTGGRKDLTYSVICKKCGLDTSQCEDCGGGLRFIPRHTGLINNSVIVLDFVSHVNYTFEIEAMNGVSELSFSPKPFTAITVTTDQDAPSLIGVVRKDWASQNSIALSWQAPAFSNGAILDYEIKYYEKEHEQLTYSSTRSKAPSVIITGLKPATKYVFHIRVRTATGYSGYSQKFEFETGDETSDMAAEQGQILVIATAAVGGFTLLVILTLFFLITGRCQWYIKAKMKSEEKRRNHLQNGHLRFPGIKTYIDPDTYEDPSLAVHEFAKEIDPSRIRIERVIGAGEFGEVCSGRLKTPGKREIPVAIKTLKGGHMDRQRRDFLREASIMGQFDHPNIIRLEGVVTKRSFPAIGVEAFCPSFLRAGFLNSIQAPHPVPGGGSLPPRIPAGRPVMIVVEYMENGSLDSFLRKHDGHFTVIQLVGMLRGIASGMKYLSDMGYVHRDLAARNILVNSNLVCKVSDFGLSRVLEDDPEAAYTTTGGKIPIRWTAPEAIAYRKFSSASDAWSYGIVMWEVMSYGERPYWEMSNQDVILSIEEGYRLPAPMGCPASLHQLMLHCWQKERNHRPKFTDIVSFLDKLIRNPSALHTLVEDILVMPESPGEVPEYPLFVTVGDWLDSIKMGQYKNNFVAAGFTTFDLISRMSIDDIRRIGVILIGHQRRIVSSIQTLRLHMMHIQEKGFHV
T26 sequence (Q9Y6R4 whole entry): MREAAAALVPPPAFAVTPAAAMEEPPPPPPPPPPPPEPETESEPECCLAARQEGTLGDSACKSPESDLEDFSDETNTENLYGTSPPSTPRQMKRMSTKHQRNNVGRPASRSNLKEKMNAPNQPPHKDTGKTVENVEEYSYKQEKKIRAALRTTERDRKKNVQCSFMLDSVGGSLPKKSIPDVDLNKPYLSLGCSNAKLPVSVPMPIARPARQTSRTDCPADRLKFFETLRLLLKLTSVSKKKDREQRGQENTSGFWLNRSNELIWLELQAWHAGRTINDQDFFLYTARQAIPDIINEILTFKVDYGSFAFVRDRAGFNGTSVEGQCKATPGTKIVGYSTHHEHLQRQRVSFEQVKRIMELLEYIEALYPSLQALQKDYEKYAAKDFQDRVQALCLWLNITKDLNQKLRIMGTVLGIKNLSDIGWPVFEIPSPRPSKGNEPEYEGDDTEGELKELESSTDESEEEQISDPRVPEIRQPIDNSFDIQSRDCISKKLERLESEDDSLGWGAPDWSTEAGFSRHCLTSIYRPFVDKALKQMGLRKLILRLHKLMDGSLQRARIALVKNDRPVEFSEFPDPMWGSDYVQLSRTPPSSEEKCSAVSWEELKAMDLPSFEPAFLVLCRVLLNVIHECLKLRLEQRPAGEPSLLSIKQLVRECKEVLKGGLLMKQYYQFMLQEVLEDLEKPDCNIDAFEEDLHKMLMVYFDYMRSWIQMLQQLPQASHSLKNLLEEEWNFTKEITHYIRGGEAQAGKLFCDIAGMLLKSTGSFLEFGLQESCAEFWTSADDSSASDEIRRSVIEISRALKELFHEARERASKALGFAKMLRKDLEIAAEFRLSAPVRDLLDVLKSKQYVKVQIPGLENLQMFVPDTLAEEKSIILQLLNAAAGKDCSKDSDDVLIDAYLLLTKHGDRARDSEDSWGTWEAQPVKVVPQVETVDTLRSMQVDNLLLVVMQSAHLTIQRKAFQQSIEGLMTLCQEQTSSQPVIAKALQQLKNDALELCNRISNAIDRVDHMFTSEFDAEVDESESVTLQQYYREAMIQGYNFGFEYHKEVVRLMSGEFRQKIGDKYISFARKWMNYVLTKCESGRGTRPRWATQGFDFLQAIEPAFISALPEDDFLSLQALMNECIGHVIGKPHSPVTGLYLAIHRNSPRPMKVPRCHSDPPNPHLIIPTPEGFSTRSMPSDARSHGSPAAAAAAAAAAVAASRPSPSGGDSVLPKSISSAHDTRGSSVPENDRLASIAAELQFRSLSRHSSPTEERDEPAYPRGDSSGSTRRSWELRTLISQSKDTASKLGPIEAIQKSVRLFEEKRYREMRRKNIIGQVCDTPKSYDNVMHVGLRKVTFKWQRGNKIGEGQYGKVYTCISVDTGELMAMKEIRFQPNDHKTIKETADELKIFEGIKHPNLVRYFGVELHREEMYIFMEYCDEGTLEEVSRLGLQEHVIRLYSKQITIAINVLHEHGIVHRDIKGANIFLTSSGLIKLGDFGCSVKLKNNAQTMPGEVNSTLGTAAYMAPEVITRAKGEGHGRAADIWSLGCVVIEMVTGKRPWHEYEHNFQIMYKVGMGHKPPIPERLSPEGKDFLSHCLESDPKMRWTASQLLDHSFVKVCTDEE
T23 sequence (Q9UEE5 whole entry): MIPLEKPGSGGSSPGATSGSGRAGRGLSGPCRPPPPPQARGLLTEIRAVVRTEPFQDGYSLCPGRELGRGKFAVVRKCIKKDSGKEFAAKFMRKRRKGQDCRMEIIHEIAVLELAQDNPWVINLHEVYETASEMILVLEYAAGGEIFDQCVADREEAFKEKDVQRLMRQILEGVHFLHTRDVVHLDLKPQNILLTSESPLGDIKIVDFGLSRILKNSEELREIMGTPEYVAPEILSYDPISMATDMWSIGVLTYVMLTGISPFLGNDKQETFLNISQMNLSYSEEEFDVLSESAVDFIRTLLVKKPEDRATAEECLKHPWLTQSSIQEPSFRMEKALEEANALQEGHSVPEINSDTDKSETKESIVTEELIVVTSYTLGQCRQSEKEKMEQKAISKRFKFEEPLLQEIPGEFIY

CC(C)C(=O)N1CCN(c2ccc(NC(=O)c3cc4ccccc4o3)cc2Cl)CC1 [Compound 21]
Percent Control [1]: 89% | Percent Control [2]: 93% | Percent Control [3]: 92% | Percent Control [4]: 97% | Percent Control [5]: 92% | Percent Control [6]: 93% | Percent Control [7]: 98% | Percent Control [8]: 100% | Percent Control [9]: 75% | Percent Control [10]: 83% | Percent Control [11]: 87% | Percent Control [12]: 92% | Percent Control [13]: 89% | Percent Control [14]: 96% | Percent Control [15]: 91% | Percent Control [16]: 80% | Percent Control [17]: 67% | Percent Control [18]: 89% | Percent Control [19]: 90% | Percent Control [20]: 88% | Percent Control [21]: 88% | Percent Control [22]: 77% | Percent Control [23]: 93% | Percent Control [24]: 75% | Percent Control [25]: 93% | Percent Control [26]: 73%

From paper PMC8333425, “Discovery of a dual Ras and ARF6 inhibitor from a GPCR endocytosis screen” (Nature Communications, 2021)
